Converted amounts (≈) assume the structure as drawn.
Tested on: Mycobacterium tuberculosis
Experiment: Antimycobacterial activity against Mycobacterium bovis BCG
Type: functional
Conditions: variant bovis BCG

**Q.** `Cc1ccn2c(C(=O)NCc3ccccc3)c(C)nc2c1` was tested. Which MIC did it give?
**A.** The MIC was 0.3 µM (≈ 0.0838 µg/mL).
